Results as given in patent US20250339566A1, “INHIBITORS OF FIBROBLAST ACTIVATION PROTEIN” (UNIVERSITEIT ANTWERPEN, priority 2022, published 2025).
Where two headings read alike, the source gives them in different places.

Experiments:
Type in all cases: biochemical
Human recombinant PREP = target: T1, Human recombinant PREP (Homo sapiens, UniProt P48147); assay: PREP IC50 measurement (N-succinyl-Gly-Pro-AMC); details: for Selectivity index PREP: IC50(PREP)/IC50(FAP); for IC50: N-succinyl-Gly-Pro-AMC 250 μM, pH 7.4
T1 construct: made in house; host or cells: E. coli BL21(DE3)
T1 sequence (P48147 1-710): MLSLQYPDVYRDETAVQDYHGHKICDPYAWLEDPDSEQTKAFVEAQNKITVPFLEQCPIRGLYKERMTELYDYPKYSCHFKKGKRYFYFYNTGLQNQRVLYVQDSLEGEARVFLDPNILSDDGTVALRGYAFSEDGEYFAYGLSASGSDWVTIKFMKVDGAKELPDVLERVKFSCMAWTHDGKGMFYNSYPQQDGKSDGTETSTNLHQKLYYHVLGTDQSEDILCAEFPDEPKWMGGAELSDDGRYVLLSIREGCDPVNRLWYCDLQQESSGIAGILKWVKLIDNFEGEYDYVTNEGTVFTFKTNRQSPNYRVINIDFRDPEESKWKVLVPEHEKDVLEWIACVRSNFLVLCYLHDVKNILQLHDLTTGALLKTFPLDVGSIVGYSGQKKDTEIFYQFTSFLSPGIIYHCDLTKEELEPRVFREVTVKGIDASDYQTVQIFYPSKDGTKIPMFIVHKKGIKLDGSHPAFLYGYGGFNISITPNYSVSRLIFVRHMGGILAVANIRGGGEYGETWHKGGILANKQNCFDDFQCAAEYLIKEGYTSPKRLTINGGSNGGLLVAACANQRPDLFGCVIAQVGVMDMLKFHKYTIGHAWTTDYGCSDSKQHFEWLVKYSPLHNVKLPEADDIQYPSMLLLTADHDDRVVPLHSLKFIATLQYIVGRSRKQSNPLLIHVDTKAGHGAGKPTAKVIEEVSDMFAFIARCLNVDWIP
Text: (§1) Used Enzymes in these Assays: • A gateway-entry clone for human FAP was purchased from Dharmacon (Accession number DQ891423) and the human secretion signal was replaced with the HoneyBee mellitin secretion signal. For transfection and expression of FAP in Sf9 insect cells the C-terminal BaculoDirect kit from LifeTechnologies was used. The enzyme was purified from the supernatant of the insect cells using immobilized Ni-chelating chromatography (GE healthcare, Diegem, Belgium), followed by anion-exchange chromatography using a 1 mL HiTrap Q and size exclusion chromatography using the Superdex 200 column (GE healthcare, Diegem, Belgium). • Human recombinant PREP was expressed in BL21(DE3) cells and purified using immobilized Co-chelating chromatography (GE healthcare), followed by anion-exchange chromatography on a 1 ml Mono Q column (GE healthcare). • DPP4 was purified from human seminal plasma. • Gateway-entry clones for human DPP8 and DPP9 were purchased from Dharmacon (Accession numbers DQ891733 and DQ892325 respectively). For transfection and expression of DPP8 and DPP9 in Sf9 insect cells the N-terminal BaculoDirect kit from LifeTechnologies was used. The enzymes were purified using immobilized Ni-chelating chromatography (GE healthcare, Diegem, Belgium), followed by anion-exchange chromatography using a 1 mL Mono Q (GE healthcare, Diegem, Belgium). • Recombinant human DPP2 was purchased from R&D.
(§2) Eight concentrations of inhibitors/probe were tested. The final DMSO concentration was kept constant during the experiment to exclude any effects. Inhibitors were pre-incubated with the enzyme for 15 minutes at 37° C., afterwards the substrate was added and the velocities of AMC release were measured kinetically at λex=380 nm, λem=465 nm for at least 10 minutes at 37° C. […] Eight concentrations of inhibitors were tested. The final DMSO concentration in kept constant during the experiment to exclude any effects. Inhibitors were pre-incubated with the enzyme for 15 minutes at 37° C., afterwards the substrate was added and the velocities of AMC release were measured kinetically at λex=380 nm, λem=465 nm for at least 10 minutes at 37° C. […] At least eight different inhibitor concentrations were used. The final DMSO concentration is kept constant during the experiment to exclude any effects. Inhibitors were pre-incubated with the enzyme for 15 minutes at 37° C., afterwards the substrate was added and the velocities of pNA release were measured kinetically at 405 nm for at least 10 minutes at 37° C. Measurements were done on the Infinite 200 (Tecan Group Ltd.) and the Magellan software was used to process the data. • For DPP2: Initial velocity measurements were carried out. Lys-Ala-pNA was used as the substrate at a concentration of 1 mM at pH 5.5 (100 mM NaAc, 10 mM EDTA, 14 μg/mL aprotinin). Inhibitors were tested at one concentration, 5 μM, being the final concentration in the well. Inhibitors were pre-incubated with the enzyme for 15 minutes at 37° C., afterwards the substrate was added and the velocities of pNA release were measured kinetically at 405 nm for at least 10 minutes at 37° C. Measurements were done on the Infinite 200 (Tecan Group Ltd.) and the Magellan software was used to process the data.

human FAP = target: T2, human FAP (Homo sapiens, UniProt Q12884); assay: FAP IC50 measurement (Z-Gly-Pro-AMC); details: Z-Gly-Pro-AMC 50 μM, pH 8, 15 min pre-incubation
T2 construct: the human secretion signal was replaced with the HoneyBee mellitin secretion signal; honeybee melittin secretion signal (replaces the native signal) (N); made in house; host or cells: Sf9 insect cells (baculovirus), purified from supernatant
T2 sequence (Q12884 26-760 limits assumed): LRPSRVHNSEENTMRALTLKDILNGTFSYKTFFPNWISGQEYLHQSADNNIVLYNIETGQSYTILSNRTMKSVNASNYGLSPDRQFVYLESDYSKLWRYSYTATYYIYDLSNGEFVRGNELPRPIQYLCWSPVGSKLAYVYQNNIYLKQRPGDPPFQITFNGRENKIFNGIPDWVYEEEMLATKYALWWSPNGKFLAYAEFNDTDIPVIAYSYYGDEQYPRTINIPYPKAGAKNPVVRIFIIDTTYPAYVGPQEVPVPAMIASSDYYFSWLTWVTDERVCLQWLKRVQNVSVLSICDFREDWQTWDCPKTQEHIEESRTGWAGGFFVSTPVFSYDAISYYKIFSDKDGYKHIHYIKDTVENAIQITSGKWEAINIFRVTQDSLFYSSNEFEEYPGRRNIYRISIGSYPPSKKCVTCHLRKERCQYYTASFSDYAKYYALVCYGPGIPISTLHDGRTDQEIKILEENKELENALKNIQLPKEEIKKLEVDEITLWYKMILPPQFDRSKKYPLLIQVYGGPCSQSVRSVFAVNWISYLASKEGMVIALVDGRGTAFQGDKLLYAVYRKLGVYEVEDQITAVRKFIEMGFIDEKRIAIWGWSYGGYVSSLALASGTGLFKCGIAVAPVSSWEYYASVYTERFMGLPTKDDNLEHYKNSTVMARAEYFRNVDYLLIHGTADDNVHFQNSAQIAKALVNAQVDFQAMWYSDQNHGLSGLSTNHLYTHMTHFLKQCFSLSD
Text: as §1, §2

human DPP9 = target: T3, human DPP9 (Homo sapiens, UniProt Q86TI2); assay: DPP9 IC50 measurement (Ala-Pro-pNA); details: for IC50: Ala-Pro-pNA 150 μM, pH 7.4; for Selectivity index DPP9: IC50(DPP9)/IC50(FAP)
T3 construct: made in house; host or cells: Sf9 insect cells (baculovirus)
T3 sequence (Q86TI2 whole entry): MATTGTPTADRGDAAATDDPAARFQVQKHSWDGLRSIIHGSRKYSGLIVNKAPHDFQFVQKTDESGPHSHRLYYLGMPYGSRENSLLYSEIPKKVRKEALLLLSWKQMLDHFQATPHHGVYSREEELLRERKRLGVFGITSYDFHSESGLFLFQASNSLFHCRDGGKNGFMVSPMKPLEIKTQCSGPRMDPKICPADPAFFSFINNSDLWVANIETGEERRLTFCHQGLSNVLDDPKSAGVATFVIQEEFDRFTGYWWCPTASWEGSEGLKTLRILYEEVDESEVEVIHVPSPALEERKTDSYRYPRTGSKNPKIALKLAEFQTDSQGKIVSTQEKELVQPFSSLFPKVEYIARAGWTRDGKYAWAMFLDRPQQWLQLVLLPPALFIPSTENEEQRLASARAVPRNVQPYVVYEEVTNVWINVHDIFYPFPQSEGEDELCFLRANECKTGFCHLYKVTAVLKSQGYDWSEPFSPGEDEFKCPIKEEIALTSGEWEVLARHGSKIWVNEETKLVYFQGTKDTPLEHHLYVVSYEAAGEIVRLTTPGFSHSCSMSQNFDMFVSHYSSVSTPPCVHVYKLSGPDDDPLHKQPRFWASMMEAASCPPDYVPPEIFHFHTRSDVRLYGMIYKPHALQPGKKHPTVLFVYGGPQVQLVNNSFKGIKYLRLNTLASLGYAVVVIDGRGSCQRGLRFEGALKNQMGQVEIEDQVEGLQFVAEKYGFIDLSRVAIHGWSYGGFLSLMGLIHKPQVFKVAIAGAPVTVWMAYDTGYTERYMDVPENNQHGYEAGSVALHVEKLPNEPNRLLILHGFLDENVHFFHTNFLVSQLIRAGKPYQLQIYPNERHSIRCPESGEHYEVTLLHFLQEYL
Text: as §1, §2

DPP4 = target: T4, DPP4 (Homo sapiens, UniProt P27487); assay: DPP4 IC50 measurement (Ala-Pro-pNA); details: for IC50: Ala-Pro-pNA 25 μM, pH 7.4; for Selectivity index DPP4: IC50(DPP4)/IC50(FAP)
T4 construct: DPP4 was purified from human seminal plasma; from tissue; host or cells: human seminal plasma
T4 sequence (P27487 whole entry): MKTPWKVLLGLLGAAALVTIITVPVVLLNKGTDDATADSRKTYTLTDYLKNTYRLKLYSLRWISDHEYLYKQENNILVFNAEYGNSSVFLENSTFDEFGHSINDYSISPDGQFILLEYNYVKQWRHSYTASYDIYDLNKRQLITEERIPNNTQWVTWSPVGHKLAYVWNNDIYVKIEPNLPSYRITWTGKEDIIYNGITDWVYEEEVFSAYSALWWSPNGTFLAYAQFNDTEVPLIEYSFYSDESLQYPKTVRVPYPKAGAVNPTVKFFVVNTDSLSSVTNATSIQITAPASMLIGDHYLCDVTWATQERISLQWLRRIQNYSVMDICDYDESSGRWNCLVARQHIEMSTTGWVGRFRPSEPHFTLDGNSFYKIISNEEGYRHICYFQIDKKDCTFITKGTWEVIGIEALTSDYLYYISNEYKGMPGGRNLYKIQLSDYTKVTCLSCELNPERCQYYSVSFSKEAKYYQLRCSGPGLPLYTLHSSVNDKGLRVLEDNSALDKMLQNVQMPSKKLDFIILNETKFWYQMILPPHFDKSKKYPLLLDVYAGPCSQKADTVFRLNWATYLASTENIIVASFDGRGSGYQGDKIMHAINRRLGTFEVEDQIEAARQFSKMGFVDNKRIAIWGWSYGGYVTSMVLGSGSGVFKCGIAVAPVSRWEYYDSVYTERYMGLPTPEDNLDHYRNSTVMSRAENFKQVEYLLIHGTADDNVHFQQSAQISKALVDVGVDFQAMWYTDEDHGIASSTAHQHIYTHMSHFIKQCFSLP
Text: as §1, §2

human DPP8 = target: T5, human DPP8 (Homo sapiens, UniProt Q6V1X1); assay: DPP8 IC50 measurement (Ala-Pro-pNA); details: for IC50: read-out: DPP8 IC50; for Selectivity index DPP8: IC50(DPP8)/IC50(FAP)
T5 construct: made in house; host or cells: Sf9 insect cells (baculovirus)
T5 sequence (Q6V1X1 whole entry): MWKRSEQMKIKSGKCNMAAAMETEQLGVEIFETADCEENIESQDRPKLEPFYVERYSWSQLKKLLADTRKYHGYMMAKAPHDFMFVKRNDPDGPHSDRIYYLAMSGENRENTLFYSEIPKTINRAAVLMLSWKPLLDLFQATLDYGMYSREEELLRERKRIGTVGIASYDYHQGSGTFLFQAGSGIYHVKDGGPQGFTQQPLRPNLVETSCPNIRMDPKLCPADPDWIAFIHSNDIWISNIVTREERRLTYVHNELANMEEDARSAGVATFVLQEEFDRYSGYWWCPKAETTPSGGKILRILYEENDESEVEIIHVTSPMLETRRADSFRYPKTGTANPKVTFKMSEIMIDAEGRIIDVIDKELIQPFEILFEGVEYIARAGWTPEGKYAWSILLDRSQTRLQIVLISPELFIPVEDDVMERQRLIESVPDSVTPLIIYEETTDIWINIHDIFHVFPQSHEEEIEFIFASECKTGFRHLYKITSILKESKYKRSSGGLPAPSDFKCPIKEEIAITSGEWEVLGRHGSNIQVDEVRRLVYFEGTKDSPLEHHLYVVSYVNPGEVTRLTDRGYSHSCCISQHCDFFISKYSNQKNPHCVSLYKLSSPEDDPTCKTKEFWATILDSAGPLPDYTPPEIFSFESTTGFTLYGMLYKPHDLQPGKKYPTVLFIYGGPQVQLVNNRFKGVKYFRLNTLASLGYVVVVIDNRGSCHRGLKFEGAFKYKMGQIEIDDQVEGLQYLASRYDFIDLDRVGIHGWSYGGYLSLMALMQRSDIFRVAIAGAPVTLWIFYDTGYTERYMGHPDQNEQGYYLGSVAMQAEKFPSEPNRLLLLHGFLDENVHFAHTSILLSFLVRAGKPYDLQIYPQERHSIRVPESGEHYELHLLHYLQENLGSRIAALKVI
Text: as §1, §2

Row | Selectivity index PREP (Human recombinant PREP) | IC50 (Human recombinant PREP) | IC50 (human FAP) | IC50 (human DPP9) | Selectivity index DPP9 (human DPP9) | IC50 (DPP4) | Selectivity index DPP4 (DPP4) | IC50 (human DPP8; Ala-Pro-pNA 300 μM, pH 7.4) | Selectivity index DPP8 (human DPP8) | Selectivity index PREP (Human recombinant PREP; 4-methylbenzenesulfonate) | Selectivity index PREP (Human recombinant PREP; listed as UAMC-0005086, 4-methylbenzenesulfonate) | IC50 (human DPP8; heading: DPP8 IC50) | SMILES
1 | >22000 | > 10 µM | 0.00044 ± 0.0001 µM | 0.67 ± 0.03 µM | >2200 | > 10 µM | >22000 | > 1 µM | >2200 | – | – | – | C[N+]1(CCCOc2ccc3nccc(C(=O)NCC(=O)N4CC(F)(F)C[C@H]4C#N)c3c2)CCN(C(=O)c2ccc(I)cc2)CC1 [Compound 13, (S)-1-(3-((4-((2-(2-cyano-4,4-difluoropyrrolidin-1-yl)-2-oxoethyl)carbamoyl)quinolin-6-yl)oxy)propyl)-4-(4-iodobenzoyl)-1-methylpiperazin-1-ium hexafluorophosphate(V)]
2 | – | – | – | – | – | – | – | – | – | – | – | > 10 µM | N#C[C@@H]1CC(F)(F)CN1C(=O)CNC(=O)c1ccnc2ccccc12 [UAMC1110, reference compound]
3 | >2100 | > 1 µM | 0.00046 ± 4e-05 µM | > 10 µM | >21000 | > 1 µM | >2100 | > 10 µM | >21000 | – | – | – | C[N+](C)(CF)CCOCCOCCOc1ccc2nccc(C(=O)NCC(=O)N3CC(F)(F)C[C@H]3C#N)c2c1 [Compound 10, (S)-2-(2-(2-((4-((2-(2-cyano-4,4-difluoropyrrolidin-1-yl)-2-oxoethyl)carbamoyl)quinolin-6-yl)oxy)ethoxy)ethoxy)-N-(fluoromethyl)-N,N-dimethylethan-1-aminium hexafluorophosphate(V)]
4 | >17000 | > 10 µM | 0.00057 ± 5e-05 µM | > 1 µM | >1700 | > 1 µM | >17000 | > 1 µM | >1700 | – | – | – | C[N+]1(CCCOc2ccc3nccc(C(=O)NCC(=O)N4CC(F)(F)C[C@H]4C#N)c3c2)CCN(C(=O)c2ccc(B(O)O)cc2)CC1.Cc1ccc(S(=O)(=O)[O-])cc1 [Compound 12, (S)-4-(4-boronobenzoyl)-1-(3-((4-((2-(2-cyano-4,4-difluoropyrrolidin-1-yl)-2-oxoethyl)carbamoyl)quinolin-6-yl)oxy)propyl)-1-methylpiperazin-1-ium 4-methylbenzenesulfonate]

Further lines, the molecule ahead of its results:

Row | SMILES | Selectivity index PREP (Human recombinant PREP) | IC50 (Human recombinant PREP) | IC50 (human FAP) | IC50 (human DPP9) | Selectivity index DPP9 (human DPP9) | IC50 (DPP4) | Selectivity index DPP4 (DPP4) | IC50 (human DPP8; Ala-Pro-pNA 300 μM, pH 7.4) | Selectivity index DPP8 (human DPP8) | Selectivity index PREP (Human recombinant PREP; 4-methylbenzenesulfonate) | Selectivity index PREP (Human recombinant PREP; listed as UAMC-0005086, 4-methylbenzenesulfonate) | IC50 (human DPP8; heading: DPP8 IC50)
5 | C[N+](C)(CF)CCOc1ccc2nccc(C(=O)NCC(=O)N3CC(F)(F)C[C@H]3C#N)c2c1.Cc1ccc(S(=O)(=O)[O-])cc1 [Compound 4b, (S)-2-((4-((2-(2-cyano-4,4-difluoropyrrolidin-1-yl)-2-oxoethyl)carbamoyl)quinoline-6-yl)oxy)-N-(fluoromethyl)-N,N-dimethylethan-1-aminium 4-methylbenzenesulfonate] | – | > 10 µM | 0.00253 ± 0.00013 µM | > 10 µM | >4800 | > 10 µM | >4800 | > 10 µM | >4800 | 4853 | >4800 | –
6 | C[N+](C)(CF)CCCOc1ccc2nccc(C(=O)NCC(=O)N3CC(F)(F)C[C@H]3C#N)c2c1.Cc1ccc(S(=O)(=O)[O-])cc1 [Compound 4a, (S)-3-((4-((2-(2-cyano-4,4-difluoropyrrolidin-1-yl)-2-oxoethyl)carbamoyl)quinoline-6-yl)oxy)-N-(fluoromethyl)-N,N-dimethylpropan-1-aminium benzenesulfonate] | >31000 | > 10 µM | 0.00032 ± 2e-05 µM | > 10 µM | >31000 | > 10 µM | >31000 | > 10 µM | >31000 | – | – | –
7 | C[N+](C)(CCF)CCOCCOc1ccc2nccc(C(=O)NCC(=O)N3CC(F)(F)C[C@H]3C#N)c2c1 [Compound 8, (S)-2-(2-((4-((2-(2-cyano-4,4-difluoropyrrolidin-1-yl)-2-oxoethyl)carbamoyl)quinolin-6-yl)oxy)ethoxy)-N-(2-fluoroethyl)-N,N-dimethylethan-1-aminium 4-methylbenzenesulfonate] | >1300 | > 10 µM | 0.00942 ± 0.00344 µM | > 10 µM | >1300 | > 10 µM | >1300 | > 10 µM | >1300 | – | – | –
8 | C[N+](C)(CF)CCOCCOc1ccc2nccc(C(=O)NCC(=O)N3CC(F)(F)C[C@H]3C#N)c2c1.Cc1ccc(S(=O)(=O)[O-])cc1 [Compound 9, (S)-2-(2-((4-((2-(2-cyano-4,4-difluoropyrrolidin-1-yl)-2-oxoethyl)carbamoyl)quinolin-6-yl)oxy)ethoxy)-N-(fluoromethyl)-N,N-dimethylethan-1-aminium 4-methylbenzenesulfonate] | >10000 | 5.33 ± 0.71 µM | 0.00049 ± 1e-06 µM | – | >20000 | – | >20000 | – | >20000 | – | – | –
